Assay results as given in patent US20250276980A1, “SALTS OF A HETEROCYCLIC COMPOUND AND CRYSTALLINE FORMS, PROCESSES FOR PREPARING, THERAPEUTIC USES, AND PHARMACEUTICAL COMPOSITIONS THEREOF” (Sunovion Pharmaceuticals Inc., priority 2020, published 2025).
“Also recorded” adds a separate entry of the source. Like-named read-outs stand apart in the source and are kept apart here. Blank lines part the entries; values can stand above or below the molecule they belong to.

How the values were obtained:
Assay type in all cases: physicochemical
[1] = Dynamic vapor sorption (DVS) moisture sorption isotherm, Hiden IGA-sorp; settings: for weight gain when humidity increased from 0% RH to 95% RH: 25° C., 0% RH up to 95% RH
Experimental: (§1) DVS moisture sorption isotherms were generated using a Hiden Analytical IGA-sorp moisture sorption analyzer. Samples were run as received without pre-analysis drying. Each sample was equilibrated between about 30 and 120 minutes at each relative humidity (RH) step. Temperature was fixed at about 25° C. and the relative humidity steps (0 to 95% RH) were in 5-10% increments. Sample sizes ranged from 3 to 30 mg. After DVS measurement, XRPD was measured in order to check the solid form. Dynamic Vapor sorption (DVS) moisture sorption isotherms were generated using IGA-sorp moisture sorption analyzer (Hiden Analytical). Sample measurements were run without drying before analyses. XRPD was measured in order to check any changes of the solid form after the moisture sorption/desorption. The measurement condition is shown below: • Time at each RH steps: From 30 to 120 minutes • Relative humidity steps: 5 or 10% steps • Temperature: 25° C.

[2] = Thermogravimetric analysis (TGA); settings: for TG weight loss: from 70° C., hydrochloride
Experimental: TGA analyses were performed using a TA Instruments TGA Q500 thermogravimetric analyzer. Each sample was analyzed on a platinum pan, heated under a nitrogen purge at a rate of 10° C./min, from room temperature to 250° C. or 300° C.
Thermo-Gravimetric Analyzer (TGA) analyses were performed using TGA Q500 thermogravimetric analyzer (TA Instruments). Each sample was analyzed on a platinum pan. The measurement condition is shown below: • Atmosphere: Nitrogen • Elevated temperature rate: 10° C./min • Temperature range: From room temperature to 250 or 300° C.

[3] = Solubility of Compound 1 Tosylate in solvents
Experimental: Considering the formation of the genotoxic impurities with alcohol, water was selected as the solvent and acetone as the anti-solvent. The solubility in the water-acetone binary solvent system indicates the feasibility for crystallization in this solvent system. Further solubility was also measured to help define the operation conditions.

[4] = Differential scanning calorimetry (DSC); settings: sealed pan, 10° C./min
Experimental: DSC chart was obtained using a TA Instruments DSC Q1000 differential scanning calorimeter. Each sample was analyzed in a crimped pan with a pinhole, heated under a nitrogen purge at a rate of 10° C./min, from 10° C. to 250° C. or 300° C.
Differential Scanning Calorimeter (DSC) chart was obtained by DSC Q1000 differential scanning calorimeter (TA Instruments). Each sample was analyzed in a crimped pan with a pinhole. The measurement condition is shown below: • Atmosphere: Nitrogen • Elevated temperature rate: 10° C./min • Temperature range: From 10° C. to 250 or 300° C.
All DSC analyses were performed using TA Instruments Q100 differential scanning calorimeter. Lots 1-3 were analyzed in a sealed pan. Each sample was heated under a 50 mL/min nitrogen purge at a heating rate of 10° C./min, from a starting temperature of 25° C. up to a final temperature of 300° C. Sample size ranged from […].

[5] = Temperature controlled XRPD (crystal form stability on heating); settings: up to melting
Experimental: Temperature controlled XRPD was measured by the X'pert-MPD with an Anton Paar TCU 100 Temperature Control Unit. Sample was measured from 30° C. to 250° C. or 270° C. with 10° C. increments. Measurement conditions were as follows: range: 4-30°, step: 0.017°, time per step: 100 s.
FT-Raman, XRPD, DSC, TGA, and DVS instruments and techniques were similar to those in Example 3. Temperature controlled XRPD was measured by X'pert-Pro MIPD (Spectris) with TCU 100 Temperature Control Unit (Anton Paar). The temperature of the sampling stage was increased step by step as programmed and XRPD patterns of sample were measured at each step. The measurement condition is shown below: • Range angle: From 4 to 30° • Step size: 0.017° • Time per step: 100 s

[6] = Storage at 75% RH (saturated NaCl), solid form checked by Raman/XRPD; settings: overnight / 1 day
Experimental: Fumaric acid salt Form FB has about 3.8% weight loss from low temperature with TGA measurement. From DVS result, there is about 5% weight gain at over 75% RH, so polymorphic form seems to be changed. […] Therefore, Form FA seems to be di-hydrate. Form FB seems to be mono-hydrate. The thermal behavior of Form FA is a little different from that of Form FB. Form FA generated the experiment described above using about 28 mg of fumaric acid and about 2 mL of THE seems to be easy to be dehydrated. It can be affected by vacuum dry. When Form FA and Form FB are placed under dry condition or heated, anhydrous form can be obtained. But they are quickly transformed to be hydrous form by obtaining water in the air.
It was confirmed that Form HC was reproducible even in the scale up study. […] The NMR spectrum shown indicated no presence of organic solvents.

[7] = XRPD before and after DVS measurement (moisture sorption/desorption)
Experimental: as §1

[8] = Polymorph study of Compound 1 Hydrochloride (solvent, slurry screening, scale up; FT-Raman/XRPD); settings: on filtration/drying, humidity or room temperature
Experimental: FT-Raman analyses were performed by using MultiRAM (Bruker Optics). Each suspension or dry powder sample was measured from out of glass vial. The measurement condition is shown below: • Excitation wavelength: 1064 nm • Laser power: 500 mW • Wavenumber: 4 cm-1 • Sample scan: 128 times
X-ray Powder Diffraction (XRPD) spectra were obtained by X′ pert Pro MPD (Spectris). X-rays was generated with Cu Kα radiation. The powder samples were put on the reflection free sample plate. The XRPD patterns were analyzed by HighScorePlus. The measurement condition is shown below: • Range angle: From 4 to 30°, to 40° and to 65° (20) • Step size: 0.017° • Time per step: 100 s
Compound 1 Hydrochloride, Form HA (about 5 mg) was put into each small glass vial and various types of solvents were added until the sample was dissolved at about 90° C. or boiling point. Maximum volume of solvent was about 500 μL. After the solution and suspension was heated for a few hours, the heater was switched off and the sample was cooled. The vials were preserved at about 5° C. Crystals obtained in the vials were measured directly by FT-Raman. After solvent was evaporated by opening the cap of vial, crystals obtained were also measured directly by FT-Raman. Solids were then collected and evaluated by XRPD and thermal analysis as needed.
Compound 1 Hydrochloride, Form HA (about 10 mg) was put into each small glass vial and various types of organic solvents mixed with water were added. After each sample was suspended at room temperature for about 3 days, suspended solids in the vials were measured directly by FT-Raman. Furthermore, each sample was suspended at about 50° C. for about 3 days and these were measured directly by FT-Raman. Solids were then collected and evaluated by XRPD, thermal analysis and DVS as needed.
Compound 1 Hydrochloride, Form HA (about 100 mg) was put into a glass vial and about 1 mL of EtOH mixed with water (10:1) was added. […] It was analyzed by XRPD, thermal analysis, ^1H-NMR, elemental analysis and ion-chromatography.

[9] = Lot 1, recrystallized from water/acetone
[10] = Lot 2, recrystallized from water/acetone
[11] = Lot 3, recrystallized from water/acetone

Structure (SMILES): CNC[C@@H]1OCCn2nc3ccccc3c21.O=C(O)/C=C/C(=O)O [Compound 1 Fumarate, (S)-1-(3,4-dihydro-1H-[1,4]oxazino[4,3-b]indazol-1-yl)-N-methylmethanamine fumarate]
hygroscopicity (in words) [1]: no hygroscopicity

Structure (SMILES): CNC[C@@H]1OCCn2nc3ccccc3c21.O=P(O)(O)O [Compound 1 Phosphate, (S)-1-(3,4-dihydro-1H-[1,4]oxazino[4,3-b]indazol-1-yl)-N-methylmethanamine phosphate]
TGA weight loss (in words) ([2]; listed as phosphate salt, phosphate): large amount of weight loss at low temperature
TGA weight loss (in words) ([2]; phosphate): large amount of weight loss from low temperature

Structure (SMILES): CNC[C@@H]1OCCn2nc3ccccc3c21.O=C(O)/C=C/C(=O)O [Form FA, (S)-1-(3,4-dihydro-1H-[1,4]oxazino[4,3-b]indazol-1-yl)-N-methylmethanamine fumarate]
transformation to another polymorph on heating [5]: not transformed to any other polymorph

Structure (SMILES): CNC[C@@H]1OCCn2nc3ccccc3c21.O=C(O)/C=C/C(=O)O [Form FB, (S)-1-(3,4-dihydro-1H-[1,4]oxazino[4,3-b]indazol-1-yl)-N-methylmethanamine fumarate]
weight gain at over 75% RH ([1]; over 75% RH): about 5%
TGA weight loss ([2]; from low temperature): about 3.8%
change of crystal form on storage at high humidity [6]: Form FA was observed

Structure (SMILES): CNC[C@@H]1OCCn2nc3ccccc3c21.Cl [Form HB, (S)-1-(3,4-dihydro-1H-[1,4]oxazino[4,3-b]indazol-1-yl)-N-methylmethanamine hydrochloride]
stability of the crystal form [8]: transformed to Form HC or Form HA when it was filtrated and dried; also recorded: Not stable

Structure (SMILES): CNC[C@@H]1OCCn2nc3ccccc3c21.Cl [Form HD, (S)-1-(3,4-dihydro-1H-[1,4]oxazino[4,3-b]indazol-1-yl)-N-methylmethanamine hydrochloride]
stability of the crystal form [8]: Transformed to Form C at room temperature

Further lines, with some results ahead:

weight gain at 95% RH ([1]; about 25° C.): about 2%
TGA weight loss (in words) [2]: no weight loss until melting
Structure (SMILES): CNC[C@@H]1OCCn2nc3ccccc3c21.O=S(=O)(O)c1ccccc1 [Compound 1 Besylate, (S)-1-(3,4-dihydro-1H-[1,4]oxazino[4,3-b]indazol-1-yl)-N-methylmethanamine benzenesulfonate]
hygroscopicity (in words) ([1]; listed as besylate, benzenesulfonate): less hygroscopicity; also recorded: low hygroscopicity

weight gain at 95% RH ([1]; about 25° C.): about 1%
hygroscopicity (in words) ([1]; listed as Tosylate, tosylate): less hygroscopicity
hygroscopicity (in words) ([1]; listed as tosylate, tosylate): low hygroscopicity
solubility (in words) [3]: decent solubility in methanol and water
DSC Onset [4, 9]: 240.5 °C
DSC Peak [4, 9]: 241.9 °C
DSC ΔHf [4, 9]: 122 J/g
DSC Onset [4, 10]: 240.2 °C
DSC Peak [4, 10]: 241.7 °C
DSC ΔHf [4, 10]: 113 J/g
DSC Onset [4, 11]: 239.7 °C
DSC Peak [4, 11]: 241.4 °C
DSC ΔHf [4, 11]: 123 J/g
Structure (SMILES): CNC[C@@H]1OCCn2nc3ccccc3c21.Cc1ccc(S(=O)(=O)O)cc1 [Compound 1 Tosylate, (S)-1-(3,4-dihydro-1H-[1,4]oxazino[4,3-b]indazol-1-yl)-N-methylmethanamine tosylate]

weight gain at 90% RH ([1]; another batch of Form BA): about 1%
weight gain at 90% RH ([1]; one batch of Form BA): about 2%
weight gain at 95% RH ([1]; another batch of Form BA): about 2%
weight gain at 95% RH ([1]; one batch of Form BA): about 8%
transformation to another polymorph on heating [5]: not transformed to any other polymorph
Structure (SMILES): CNC[C@@H]1OCCn2nc3ccccc3c21.O=S(=O)(O)c1ccccc1 [Form BA, (S)-1-(3,4-dihydro-1H-[1,4]oxazino[4,3-b]indazol-1-yl)-N-methylmethanamine benzenesulfonate]
hygroscopicity (in words) ([1]; benzenesulfonate): less hygroscopicity; also recorded: good hygroscopicity behavior

weight gain at 95% RH ([1]; about 25° C.): over 100%
hygroscopicity (in words) ([1]; hydrochloride): Highly hygroscopic
TG weight loss [2]: over 17.1%
Structure (SMILES): CNC[C@@H]1OCCn2nc3ccccc3c21.Cl [Form HA, (S)-1-(3,4-dihydro-1H-[1,4]oxazino[4,3-b]indazol-1-yl)-N-methylmethanamine hydrochloride]
change of crystal form after DVS measurement ([7]; hydrochloride): transformed to Form HC mixed with an unidentified polymorph

weight gain when humidity increased from 0% RH to 95% RH [1]: 9.3%
weight gain between 60% RH and 70% RH ([1]; between 60% RH and 70% RH): 6.5%
hygroscopicity (in words) ([1]; hydrochloride): hygroscopic
TG weight loss [2]: 6.6%
change of crystal form after DVS measurement ([7]; hydrochloride): basically stable
change of crystal form on storage at high humidity [6]: transformed to Form HD
Structure (SMILES): CNC[C@@H]1OCCn2nc3ccccc3c21.Cl [Form HC, (S)-1-(3,4-dihydro-1H-[1,4]oxazino[4,3-b]indazol-1-yl)-N-methylmethanamine hydrochloride]
stability of the crystal form [8]: Transformed to Form D at the humidity level of more than 70% RH

weight gain when humidity increased from 0% RH to 95% RH [1]: ~1%
TGA weight loss (in words) [2]: no weight loss until melting
change of crystal form after DVS measurement [7]: no changes of the crystal form
Structure (SMILES): CNC[C@@H]1OCCn2nc3ccccc3c21.Cc1ccc(S(=O)(=O)O)cc1 [Form TA, (S)-1-(3,4-dihydro-1H-[1,4]oxazino[4,3-b]indazol-1-yl)-N-methylmethanamine tosylate]
hygroscopicity (in words) ([1]; tosylate): less hygroscopicity; also recorded: good hygroscopicity behavior; also recorded: non-hygroscopicity
transformation to another polymorph on heating ([5]; tosylate): not transformed to any other polymorph; also recorded: not transformed to another form until the melting point
